Molecular target: PI3Kα (Homo sapiens, UniProt P42336)
Test: cell-free ADP-Glo kinase assay with recombinant PI3Kα and poly-EY substrate
Type: biochemical

PI3Kα, sequence (P42336 whole entry): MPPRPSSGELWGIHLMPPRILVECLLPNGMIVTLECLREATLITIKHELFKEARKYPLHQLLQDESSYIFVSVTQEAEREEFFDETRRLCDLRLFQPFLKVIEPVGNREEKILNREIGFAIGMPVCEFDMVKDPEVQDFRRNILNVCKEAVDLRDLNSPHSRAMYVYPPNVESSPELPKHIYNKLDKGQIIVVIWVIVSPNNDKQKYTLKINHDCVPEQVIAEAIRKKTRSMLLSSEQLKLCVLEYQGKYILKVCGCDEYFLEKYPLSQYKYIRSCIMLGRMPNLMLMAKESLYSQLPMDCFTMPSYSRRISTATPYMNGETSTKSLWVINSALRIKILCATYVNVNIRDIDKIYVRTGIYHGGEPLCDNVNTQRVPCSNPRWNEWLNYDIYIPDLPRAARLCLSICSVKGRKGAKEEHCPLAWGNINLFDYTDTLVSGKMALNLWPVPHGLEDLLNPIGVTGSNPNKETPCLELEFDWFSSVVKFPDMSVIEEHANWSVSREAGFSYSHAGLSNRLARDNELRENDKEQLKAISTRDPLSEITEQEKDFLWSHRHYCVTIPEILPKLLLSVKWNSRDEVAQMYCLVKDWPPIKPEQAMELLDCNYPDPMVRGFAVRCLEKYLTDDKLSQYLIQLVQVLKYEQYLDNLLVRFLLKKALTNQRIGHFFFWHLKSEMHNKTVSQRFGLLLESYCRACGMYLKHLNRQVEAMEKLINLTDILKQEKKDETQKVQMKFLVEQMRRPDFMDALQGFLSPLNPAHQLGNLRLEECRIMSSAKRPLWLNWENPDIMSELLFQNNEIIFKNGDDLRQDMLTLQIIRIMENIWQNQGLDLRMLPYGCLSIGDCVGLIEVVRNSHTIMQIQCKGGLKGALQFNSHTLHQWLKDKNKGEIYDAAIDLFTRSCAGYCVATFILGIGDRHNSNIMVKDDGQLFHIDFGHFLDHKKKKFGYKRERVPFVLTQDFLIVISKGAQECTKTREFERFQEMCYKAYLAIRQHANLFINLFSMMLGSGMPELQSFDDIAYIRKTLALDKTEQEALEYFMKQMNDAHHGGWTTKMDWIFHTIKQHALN
PI3Kα, sequence (P27986 2-724, further chain): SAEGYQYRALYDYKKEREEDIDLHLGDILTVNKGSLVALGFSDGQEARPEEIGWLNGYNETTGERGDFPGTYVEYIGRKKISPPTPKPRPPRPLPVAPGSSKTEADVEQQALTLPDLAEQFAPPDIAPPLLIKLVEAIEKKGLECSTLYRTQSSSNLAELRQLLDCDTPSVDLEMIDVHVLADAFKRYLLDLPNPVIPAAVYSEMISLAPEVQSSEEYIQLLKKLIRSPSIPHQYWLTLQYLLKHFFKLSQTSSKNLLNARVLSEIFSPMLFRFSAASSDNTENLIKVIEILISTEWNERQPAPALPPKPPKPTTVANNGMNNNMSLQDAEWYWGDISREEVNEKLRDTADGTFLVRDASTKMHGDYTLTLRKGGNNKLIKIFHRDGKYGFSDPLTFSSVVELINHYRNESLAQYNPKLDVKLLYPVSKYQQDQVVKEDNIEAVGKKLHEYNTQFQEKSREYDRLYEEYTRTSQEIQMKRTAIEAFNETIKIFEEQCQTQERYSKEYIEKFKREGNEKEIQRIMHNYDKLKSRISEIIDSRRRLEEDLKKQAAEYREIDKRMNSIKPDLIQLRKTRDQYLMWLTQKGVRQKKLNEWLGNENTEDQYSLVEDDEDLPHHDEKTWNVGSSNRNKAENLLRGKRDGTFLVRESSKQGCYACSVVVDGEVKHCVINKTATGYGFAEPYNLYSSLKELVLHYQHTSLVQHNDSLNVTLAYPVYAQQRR

Work on OCCN1CCN(CC/C=C2/c3ccccc3Sc3ccc(C(F)(F)F)cc32)CC1 [flupentixol] yielded an IC50 of 127 ± 5.87 nM.

Reference: article PMC6643147 (International Journal of Biological Sciences, 2019)
